Data from PubChem BioAssay AID1996.
Converted amounts (≈) assume the structure as drawn.

Details: buffer; pH 7.4; 200.0 µM

| Compound | solubility kinetic |
| --- | --- |
| COc1cc([N+](=O)[O-])cc2sc(NC(=O)C(C)(C)C)nc12 | < 0.0002 mg/mL |
| ON(Cc1c(F)cccc1Cl)Cc1c(F)cccc1Cl | 0.0009 mg/mL (≈ 2.83 µM) |
| Cc1cc(Cl)ccc1OCC(=O)Nc1cccnc1 | 0.0353 mg/mL (≈ 128 µM) |
| COn1c(=O)c(-c2cccc(Br)c2)[n+]([O-])c2ccccc21 | 0.0049 mg/mL (≈ 14.1 µM) |
| CC(C(=O)Nc1ccc(C#N)cc1)N(C)Cc1cccs1 (stereo not given) | > 0.0449 mg/mL |
| Cc1cc(C)nc(NC(=S)Nc2cccc(F)c2)c1 | < 0.0002 mg/mL |
| O=C(C1CCN(S(=O)(=O)c2c(Cl)cccc2Cl)CC1)N1CCCC1 | > 0.0587 mg/mL |
| CN1CCN(C(=S)c2ccc(-c3cccc([N+](=O)[O-])c3)o2)CC1 | 0.0433 mg/mL (≈ 131 µM) |
| CCCCCCCCN=Cc1c(O)[nH]c(=O)[nH]c1=O | 0.001 mg/mL (≈ 3.74 µM) |
| COC(=O)Nc1sc2c(c1C(N)=O)CCC(C)C2 (stereo not given) | 0.005 mg/mL (≈ 18.6 µM) |
| CC1=C(C(=O)Nc2ccc(C(=O)NCCC(C)C)cc2)SCCO1 | 0.0463 mg/mL (≈ 133 µM) |
| O=C(CNC(=O)c1ccc(Cl)cc1)NC(CO)c1ccccc1 (stereo not given) | 0.0326 mg/mL (≈ 98 µM) |
| FC(F)(F)c1cc(NC2CCCCC2)ccn1 | 0.028 mg/mL (≈ 115 µM) |
| O=C(COc1ccc(Nc2ccccc2)cc1)Nc1ccncc1 | 0.0092 mg/mL (≈ 28.8 µM) |
| O=C(NCCCCc1ccccc1)c1ccc(Br)cc1 | < 0.0007 mg/mL |
| CCOC(=O)CSc1nc(C)cc2c1C(=O)OC2 | 0.0375 mg/mL (≈ 140 µM) |
| Cn1cc(CCC(=O)NCc2cccc(Cl)c2)c2ccccc21 | 0.0099 mg/mL (≈ 30.3 µM) |
| CCC(=O)c1ccc(OC(=O)N2CCOCC2)cc1 | > 0.0395 mg/mL |
| O=C(CC(=O)c1ccccc1)Nc1cc([N+](=O)[O-])ccc1Cl | 0.0006 mg/mL (≈ 1.88 µM) |
| CC(=O)Nc1ccc(NC(=O)C2C3CCC(C3)C2C(=O)O)cc1 (stereo not given) | > 0.0475 mg/mL |

| Compound | solubility kinetic |
| --- | --- |
| O=C(Nc1ccc2c(c1)OCO2)N1CCCc2ccccc21 | > 0.0444 mg/mL |
| CCCc1cc(=O)[nH]c(SCC(=O)Nc2ccc3ccccc3c2)n1 | 0.0026 mg/mL (≈ 7.36 µM) |
| CC(C)COP(=O)(c1ccc(N(C)C)cc1)C(O)c1ccccc1 (stereo not given) | > 0.0521 mg/mL |
| CCOP(=O)(c1ccc(N(C)C)cc1)C(O)c1cccnc1 (stereo not given) | > 0.048 mg/mL |
| CC(NC(=O)COC(=O)c1ccccc1O)C1CC2CCC1C2 (stereo not given) | 0.0141 mg/mL (≈ 44.4 µM) |
| COc1c(Cl)cc(C(=O)NCc2ccco2)cc1Cl | 0.0402 mg/mL (≈ 134 µM) |
| COc1ccc(OC)c(NC(=O)CN2c3cccc4cccc(c34)S2(=O)=O)c1 | 0.0022 mg/mL (≈ 5.52 µM) |
| CC[C@H](CO)NCCN[C@H](CC)CO.Cl | > 0.0416 mg/mL |
| CC1CN=C(NC(=O)c2cccc([N+](=O)[O-])c2)S1.Cl (stereo not given) | 0.0125 mg/mL |
| Cc1ccc(C(OC(=O)c2ccco2)C(=O)NC(C)(C)C)cc1 (stereo not given) | 0.017 mg/mL (≈ 53.9 µM) |
| Nc1cc(C(=O)OCC(=O)NCCCc2ccccc2)ccc1Cl | 0.0105 mg/mL (≈ 30.3 µM) |
| NC(=O)c1cccc2ccccc12 | > 0.0257 mg/mL |
| Cc1cnc(NC(=O)c2cccs2)s1 | 0.0281 mg/mL (≈ 125 µM) |
| Cc1cccc(C(=O)O/N=C(\N)CS(=O)(=O)c2ccccc2)c1 | 0.0016 mg/mL (≈ 4.81 µM) |
| O=C(/C(=C(\O)c1ccccc1)c1nc2ccccc2[nH]1)c1ccccc1 | < 0.0004 mg/mL |
| O=C(CSc1nc2ccccc2c(=O)n1CCCN1CCOCC1)Nc1ccccc1OC(F)F | > 0.0757 mg/mL |
| Cc1ccccc1-c1nc(C#N)c(N2CCCCC2)o1 | 0.0018 mg/mL (≈ 6.73 µM) |
| Cc1ccccc1OCCn1cc(C(=O)O)c2ccccc21 | > 0.0443 mg/mL |
| O=C(CNS(=O)(=O)c1cccc(C(F)(F)F)c1)NC1CCCCCC1 | 0.0487 mg/mL (≈ 129 µM) |
| O=C(Oc1ccccc1)N1CCN(C(=O)c2ccco2)CC1 | > 0.045 mg/mL |

| Compound | solubility kinetic |
| --- | --- |
| COc1ccc(NC(=O)CCCC(=O)c2ccccc2)cc1 | 0.0071 mg/mL (≈ 23.9 µM) |
| Cc1ccc(NC(=O)CN2c3cccc4cccc(c34)S2(=O)=O)cc1 | 0.0038 mg/mL (≈ 10.8 µM) |
| CCC(C)N1C(=O)CN(C2CCCCCC2)C(=O)C1c1ccccc1F (stereo not given) | 0.0196 mg/mL (≈ 54.4 µM) |
| Cc1cccc(-n2c(C)cc(/C=C3\NC(=O)NC3=O)c2C)c1 | 0.0018 mg/mL (≈ 6.09 µM) |
| COc1ccc(S(=O)(=O)NCc2c(-c3ccccc3)noc2C)c(OC)c1 | 0.0044 mg/mL (≈ 11.3 µM) |
| COc1ccc2c(c1)c1ncn(Cc3ccccn3)c(=O)c1n2C | 0.0136 mg/mL (≈ 42.5 µM) |
| COc1ccc(NC(=O)CC(=O)Nc2ccc(OC)cc2)cc1 | 0.0012 mg/mL (≈ 3.82 µM) |
| O=C(COC(=O)COc1cccc(F)c1)Nc1nc2ccccc2s1 | 0.0451 mg/mL (≈ 125 µM) |
| COc1ccccc1N1CCN(C(=O)c2cccs2)CC1 | > 0.0454 mg/mL |
| O/N=C(/c1ccc(F)cc1)C1CC1c1c(F)cccc1Cl (stereo not given) | 0.005 mg/mL (≈ 16.2 µM) |
| N[C@@H](Cc1ccccc1)C(=O)N1C[C@H]2C[C@@H](C1)c1cccc(=O)n1C2 | 0.049 mg/mL (≈ 145 µM) |
| CN(C(=O)c1ccc(COc2ccccc2Cl)o1)c1ccccc1 | 0.0088 mg/mL (≈ 25.7 µM) |
| O=C(O)Cc1c(C(=O)O)[nH]c2ccc(C(=O)O)cc12 | > 0.0395 mg/mL |
| Cc1[nH]c2ccc(C(=O)NCCN3CCCCCC3)cc2c1C | > 0.047 mg/mL |
| Cc1cccc(NC(=O)Nc2ccc(Cl)cc2)n1 | < 0.0002 mg/mL |
| CCOC(=O)CCN1C(=O)c2ccccc2Sc2ncccc21 | > 0.0493 mg/mL |
| Cc1[nH]c2ccccc2c1CCNCc1ccco1.Cl | > 0.0436 mg/mL |
| COc1ccc(-c2nc(CCl)cs2)cc1OC.Cl | 0.0418 mg/mL |
| O=C(NC1=NCCS1)C1CCN(S(=O)(=O)c2cc([N+](=O)[O-])ccc2Cl)CC1 | 0.0208 mg/mL (≈ 48 µM) |
| O=S(=O)(Nc1ccc2ccccc2n1)c1ccccc1Cl | 0.0033 mg/mL (≈ 10.4 µM) |
